The target of experiment [1] is ALK tyrosine kinase receptor (Homo sapiens, UniProt Q9UM73). The experiment in a line: Inhibitory activity against ALK.
Another experiment concerns the target Insulin receptor (Homo sapiens, UniProt P06213). In words: Inhibitory activity against IRK.
A further experiment has as its system Jurkat. The experiment in a line: Antiproliferative activity against human T-cell leukemia Jurkat cell line. Type of experiment: functional, cell-based.
The target of experiment [2] is T1, Receptor-type tyrosine-protein kinase FLT3 (Homo sapiens, UniProt P36888).
T1 sequence (P36888 whole entry): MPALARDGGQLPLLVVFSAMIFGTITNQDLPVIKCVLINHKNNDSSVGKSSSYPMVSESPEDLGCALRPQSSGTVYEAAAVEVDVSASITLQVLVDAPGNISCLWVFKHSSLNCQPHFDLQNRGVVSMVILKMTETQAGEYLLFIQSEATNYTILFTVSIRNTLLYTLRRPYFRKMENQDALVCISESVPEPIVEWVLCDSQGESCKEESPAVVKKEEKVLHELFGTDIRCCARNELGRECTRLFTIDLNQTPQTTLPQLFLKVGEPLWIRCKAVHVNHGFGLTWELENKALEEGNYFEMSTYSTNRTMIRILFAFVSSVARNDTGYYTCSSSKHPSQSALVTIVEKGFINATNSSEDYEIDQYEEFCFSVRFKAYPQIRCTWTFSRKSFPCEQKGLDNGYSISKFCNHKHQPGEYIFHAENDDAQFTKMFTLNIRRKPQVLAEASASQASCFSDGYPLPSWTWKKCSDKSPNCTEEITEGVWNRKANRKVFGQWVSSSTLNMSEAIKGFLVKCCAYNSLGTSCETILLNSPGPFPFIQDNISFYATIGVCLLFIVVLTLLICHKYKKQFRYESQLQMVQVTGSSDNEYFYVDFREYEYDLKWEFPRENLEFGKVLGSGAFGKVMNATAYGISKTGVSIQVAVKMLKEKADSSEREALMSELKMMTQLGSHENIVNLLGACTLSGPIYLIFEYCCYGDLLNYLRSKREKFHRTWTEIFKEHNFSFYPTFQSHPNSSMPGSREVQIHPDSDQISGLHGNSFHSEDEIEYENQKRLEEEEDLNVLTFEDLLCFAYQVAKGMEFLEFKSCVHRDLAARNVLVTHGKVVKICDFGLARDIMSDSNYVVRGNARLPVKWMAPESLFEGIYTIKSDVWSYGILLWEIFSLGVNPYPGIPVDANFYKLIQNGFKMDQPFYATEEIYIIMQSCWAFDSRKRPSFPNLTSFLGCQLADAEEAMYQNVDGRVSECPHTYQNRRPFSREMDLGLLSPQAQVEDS
In words: Inhibitory activity against Flt3.

A further experiment relates to BaF3. The experiment in a line: Antiproliferative activity against parental interleukin-3-dependent BaF3 cell line. Conditions: Mus musculus. Format: functional, cell-based.
Experiment [3] has as its target Proto-oncogene tyrosine-protein kinase Src (Homo sapiens, UniProt P12931). In words: Inhibitory activity against Src.
For a further experiment, the target named is Bcr/Abl fusion protein (Homo sapiens, UniProt P00519). In words: Antiproliferative activity against human BCR-ABL positive chronic myeloid leukemia K562 cell line. Type of experiment: functional, cell-based.
Chain of Bcr/Abl fusion protein (P00519 whole entry, the tested form may be a part): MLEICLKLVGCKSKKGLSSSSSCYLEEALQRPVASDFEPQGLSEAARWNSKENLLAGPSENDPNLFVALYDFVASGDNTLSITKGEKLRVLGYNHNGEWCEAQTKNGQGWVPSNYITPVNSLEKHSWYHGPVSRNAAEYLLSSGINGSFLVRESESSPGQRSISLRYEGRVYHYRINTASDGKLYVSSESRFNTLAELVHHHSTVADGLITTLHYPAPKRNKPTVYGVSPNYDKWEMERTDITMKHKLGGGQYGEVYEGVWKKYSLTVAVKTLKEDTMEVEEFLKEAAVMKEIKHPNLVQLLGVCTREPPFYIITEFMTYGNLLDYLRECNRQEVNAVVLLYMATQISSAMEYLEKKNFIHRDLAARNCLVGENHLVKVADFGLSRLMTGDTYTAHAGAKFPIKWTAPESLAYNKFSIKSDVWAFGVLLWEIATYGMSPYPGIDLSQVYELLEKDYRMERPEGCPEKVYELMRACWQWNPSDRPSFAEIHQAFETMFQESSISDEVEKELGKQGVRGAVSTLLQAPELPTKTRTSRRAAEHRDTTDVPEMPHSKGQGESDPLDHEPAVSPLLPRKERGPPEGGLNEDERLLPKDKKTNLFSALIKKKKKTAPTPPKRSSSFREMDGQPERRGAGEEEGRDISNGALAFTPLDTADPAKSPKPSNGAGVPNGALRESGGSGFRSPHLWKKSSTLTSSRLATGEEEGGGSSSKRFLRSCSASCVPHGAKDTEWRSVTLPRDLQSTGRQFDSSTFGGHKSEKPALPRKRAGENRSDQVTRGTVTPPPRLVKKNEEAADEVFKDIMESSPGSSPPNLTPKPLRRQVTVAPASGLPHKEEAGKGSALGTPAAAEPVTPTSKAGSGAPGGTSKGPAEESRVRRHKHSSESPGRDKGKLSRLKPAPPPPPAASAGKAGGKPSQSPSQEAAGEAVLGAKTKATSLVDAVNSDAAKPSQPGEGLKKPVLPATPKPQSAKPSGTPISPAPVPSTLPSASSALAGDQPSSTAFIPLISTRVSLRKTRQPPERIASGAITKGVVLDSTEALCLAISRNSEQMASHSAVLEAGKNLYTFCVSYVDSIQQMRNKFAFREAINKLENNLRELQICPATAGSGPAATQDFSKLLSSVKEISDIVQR
Chain of Bcr/Abl fusion protein (P11274 whole entry, further chain, the tested form may be a part): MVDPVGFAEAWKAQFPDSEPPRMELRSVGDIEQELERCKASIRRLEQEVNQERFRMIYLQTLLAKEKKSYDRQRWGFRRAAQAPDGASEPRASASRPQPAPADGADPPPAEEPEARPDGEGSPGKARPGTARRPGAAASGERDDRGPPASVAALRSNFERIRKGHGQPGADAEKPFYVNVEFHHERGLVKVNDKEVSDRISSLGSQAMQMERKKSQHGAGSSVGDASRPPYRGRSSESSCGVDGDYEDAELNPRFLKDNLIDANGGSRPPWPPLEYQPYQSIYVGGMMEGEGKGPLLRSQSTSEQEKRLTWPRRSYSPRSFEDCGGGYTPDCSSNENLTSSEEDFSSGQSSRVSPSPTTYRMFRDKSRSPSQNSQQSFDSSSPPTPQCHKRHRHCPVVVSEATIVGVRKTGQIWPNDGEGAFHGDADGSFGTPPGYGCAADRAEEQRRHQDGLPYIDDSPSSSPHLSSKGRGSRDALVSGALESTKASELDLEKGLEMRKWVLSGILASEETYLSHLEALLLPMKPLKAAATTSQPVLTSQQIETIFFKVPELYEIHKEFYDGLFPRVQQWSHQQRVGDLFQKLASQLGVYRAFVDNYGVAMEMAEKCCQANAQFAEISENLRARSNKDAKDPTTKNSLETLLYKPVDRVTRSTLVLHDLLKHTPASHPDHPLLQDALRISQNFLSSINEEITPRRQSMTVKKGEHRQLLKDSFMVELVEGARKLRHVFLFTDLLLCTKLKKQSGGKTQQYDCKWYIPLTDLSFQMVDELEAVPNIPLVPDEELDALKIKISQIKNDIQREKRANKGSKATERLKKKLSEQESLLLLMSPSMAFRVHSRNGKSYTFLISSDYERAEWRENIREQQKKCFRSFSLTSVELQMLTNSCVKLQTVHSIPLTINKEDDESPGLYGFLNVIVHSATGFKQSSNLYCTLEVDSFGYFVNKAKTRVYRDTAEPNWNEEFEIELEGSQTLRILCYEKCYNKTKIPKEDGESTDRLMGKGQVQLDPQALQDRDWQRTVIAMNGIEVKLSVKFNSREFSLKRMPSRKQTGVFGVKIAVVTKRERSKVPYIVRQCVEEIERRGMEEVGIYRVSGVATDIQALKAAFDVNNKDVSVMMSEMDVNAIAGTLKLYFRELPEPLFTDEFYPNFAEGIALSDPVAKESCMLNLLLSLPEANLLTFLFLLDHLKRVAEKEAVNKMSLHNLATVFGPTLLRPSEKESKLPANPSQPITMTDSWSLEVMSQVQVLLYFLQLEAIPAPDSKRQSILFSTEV
Experiment [4] concerns the target Tyrosine-protein kinase ABL1 (Homo sapiens, UniProt P00519). In words: Inhibitory activity against Abl.
Experiment [5] addresses Insulin-like growth factor 1 receptor (Homo sapiens, UniProt P08069). In words: Inhibitory activity against IGF1R.

In general, IC50 refers to the midpoint of a concentration-inhibition curve. By Ki is commonly meant the equilibrium dissociation constant of an inhibitor or competing ligand from its target. The low end stands for higher affinity, the high end for lower affinity.

Structures are written as SMILES.

Chain of Insulin receptor (P06213 28-758 limits assumed): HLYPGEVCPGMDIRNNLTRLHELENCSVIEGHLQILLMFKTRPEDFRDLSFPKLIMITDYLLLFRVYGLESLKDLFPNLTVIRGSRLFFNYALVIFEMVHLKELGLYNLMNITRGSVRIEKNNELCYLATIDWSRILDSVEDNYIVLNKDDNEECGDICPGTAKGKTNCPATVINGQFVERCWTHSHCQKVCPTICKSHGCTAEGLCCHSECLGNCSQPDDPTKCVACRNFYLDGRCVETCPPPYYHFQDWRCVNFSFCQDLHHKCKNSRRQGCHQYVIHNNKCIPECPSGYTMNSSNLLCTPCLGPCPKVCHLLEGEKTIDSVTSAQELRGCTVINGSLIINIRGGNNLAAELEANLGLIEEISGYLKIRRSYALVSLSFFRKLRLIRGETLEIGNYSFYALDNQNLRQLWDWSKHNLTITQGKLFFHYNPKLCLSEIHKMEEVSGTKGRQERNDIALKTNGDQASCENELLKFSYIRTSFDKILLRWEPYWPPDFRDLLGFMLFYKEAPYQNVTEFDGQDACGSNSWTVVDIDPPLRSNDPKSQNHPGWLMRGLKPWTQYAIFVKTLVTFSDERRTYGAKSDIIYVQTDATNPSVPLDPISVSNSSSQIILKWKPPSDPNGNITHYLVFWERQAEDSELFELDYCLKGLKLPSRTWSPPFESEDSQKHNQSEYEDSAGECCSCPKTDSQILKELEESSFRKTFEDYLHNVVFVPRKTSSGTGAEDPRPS
Chain of Insulin receptor (P06213 763-1382 limits assumed): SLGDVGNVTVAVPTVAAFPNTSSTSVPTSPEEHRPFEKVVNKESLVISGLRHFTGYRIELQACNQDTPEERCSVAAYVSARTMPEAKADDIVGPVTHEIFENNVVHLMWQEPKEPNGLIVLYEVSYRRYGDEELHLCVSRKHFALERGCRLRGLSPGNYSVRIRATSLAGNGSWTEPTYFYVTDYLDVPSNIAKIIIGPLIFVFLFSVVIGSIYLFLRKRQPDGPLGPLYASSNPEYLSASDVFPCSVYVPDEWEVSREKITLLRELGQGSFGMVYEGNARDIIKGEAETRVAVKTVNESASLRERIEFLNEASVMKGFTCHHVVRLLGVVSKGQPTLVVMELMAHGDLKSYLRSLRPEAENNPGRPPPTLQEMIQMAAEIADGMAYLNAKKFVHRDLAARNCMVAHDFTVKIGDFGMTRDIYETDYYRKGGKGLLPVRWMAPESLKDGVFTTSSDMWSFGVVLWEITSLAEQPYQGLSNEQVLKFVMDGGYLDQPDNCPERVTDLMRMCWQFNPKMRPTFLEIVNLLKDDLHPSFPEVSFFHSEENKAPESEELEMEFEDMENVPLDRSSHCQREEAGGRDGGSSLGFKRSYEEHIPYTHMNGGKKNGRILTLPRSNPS
Chain of Proto-oncogene tyrosine-protein kinase Src (P12931 2-536 limits assumed): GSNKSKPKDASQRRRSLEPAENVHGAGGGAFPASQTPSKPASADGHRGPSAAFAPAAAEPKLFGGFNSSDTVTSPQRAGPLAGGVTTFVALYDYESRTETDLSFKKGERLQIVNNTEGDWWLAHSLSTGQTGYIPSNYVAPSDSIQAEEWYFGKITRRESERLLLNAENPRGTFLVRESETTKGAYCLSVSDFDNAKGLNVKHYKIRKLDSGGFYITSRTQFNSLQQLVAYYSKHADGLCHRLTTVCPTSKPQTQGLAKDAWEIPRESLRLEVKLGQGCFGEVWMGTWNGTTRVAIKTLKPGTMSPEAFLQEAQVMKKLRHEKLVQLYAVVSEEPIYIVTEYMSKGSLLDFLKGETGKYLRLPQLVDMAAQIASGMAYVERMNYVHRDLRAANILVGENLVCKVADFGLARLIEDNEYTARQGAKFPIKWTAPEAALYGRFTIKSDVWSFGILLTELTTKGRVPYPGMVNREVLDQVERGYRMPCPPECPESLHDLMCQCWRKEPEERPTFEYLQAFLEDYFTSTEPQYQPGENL
Chain of Tyrosine-protein kinase ABL1 (P00519 whole entry): as the sequence (P00519 whole entry, the tested form may be a part) above

With `CN1CCN(Cc2ccc(NC(=O)c3cc(-c4ccncc4)cnc3O)cc2)CC1`, the IC50 was 19.5 µM in [1] and above 40 µM at Insulin receptor.
The like results for `Cc1cc(CN2CCN(C)CC2)ccc1NC(=O)c1cc(-c2ccc3c(c2)OCO3)cnc1O` were, in that order, 14.5 µM and above 40 µM.
The like results for `CN1CCN(Cc2ccc(NC(=O)c3cc(-c4ccc5c(c4)OCO5)cnc3Cl)cc2)CC1` were, in that order, 26.8 µM and 27.3 µM.
As to `CN1CCN(CCc2ccc(NC(=O)c3cc(-c4ccc5c(c4)OCO5)cnc3O)cc2)CC1`, the half-maximal inhibitory concentration (IC50) in the experiment on Jurkat was 4.7 µM; in [2], 4 µM; in the experiment on BaF3 it was 18 µM; in experiment [1], 0.4 µM; in experiment [3], above 20 µM; at Bcr/Abl fusion protein, 9.5 µM. This compound also came in with an IC50 in experiment [4] above 20 µM. Besides, the inhibition constant (Ki) in experiment [1] is 0.2 µM.
For `CN1CCN(Cc2ccc(NC(=O)c3cc(-c4ccc5c(c4)OCO5)cn(C)c3=O)cc2)CC1`, the half-maximal inhibitory concentration (IC50) (in experiment [1]; at Insulin receptor) was above 40 µM in each case.
Regarding `Cc1nc2cc(-c3cnc(O)c(C(=O)Nc4ccc(CN5CCN(C)CC5)cc4)c3)ccc2s1`, the IC50 came to 3.8 µM in experiment [1] and 16 µM on Insulin receptor.
For `CN1CCN(Cc2ccc(N(C)C(=O)c3cc(-c4ccc5c(c4)OCO5)cnc3O)cc2)CC1` the same measures were 3.7 µM and 32.5 µM.
On to `COc1cc(CN2CCN(C)CC2)ccc1NC(=O)c1cc(-c2ccc3c(c2)OCO3)cnc1O`, for which the values for the half-inhibitory concentration (IC50) (in [1]; on Insulin receptor) were 13.8 µM and above 40 µM, respectively.
For `CN1CCN(Cc2ccc(NC(=O)c3cc(-c4ccc5nccnc5c4)c[nH]c3=O)cc2)CC1` the same measures were 5.5 µM and 7 µM.
The like results for `COc1cc(-c2c[nH]c(=O)c(C(=O)Nc3ccc(CN4CCN(C)CC4)cc3)c2)cc(OC)c1OC` were, in that order, 7.5 µM and 33.5 µM.
The like results for `COc1ccc(-c2c[nH]c(=O)c(C(=O)Nc3ccc(CN4CCN(C)CC4)cc3)c2)cn1` were, in that order, 3 µM and 13.8 µM.
Regarding `CN1CCN(Cc2ccc(NC(=O)c3cc(-c4ccc5c(c4)OCO5)cnc3O)cc2)CC1`, the IC50 in the experiment with Jurkat was 9.2 µM; in [2], above 20 µM; in the experiment with BaF3, above 25 µM; in experiment [1], 0.9 µM; in experiment [5], above 20 µM; in experiment [3], above 20 µM. In addition, the IC50 at Bcr/Abl fusion protein is 12.9 µM; in experiment [4], above 20 µM. This compound also came in with a Ki in [1] of 0.5 µM.
As for `CN1CCN(CCCc2ccc(NC(=O)c3cc(-c4ccc5c(c4)OCO5)cnc3O)cc2)CC1`, the IC50 in the experiment on Jurkat is 9.3 µM; in experiment [2], above 20 µM; with BaF3, 16.2 µM; in experiment [1], 1.3 µM; in experiment [5], above 20 µM; in [3], above 20 µM. Besides, the results for the IC50 (against Insulin receptor; on Bcr/Abl fusion protein; in experiment [4]) were 10.1 µM, 14.6 µM and above 20 µM, respectively. Also, the inhibition constant (Ki) in experiment [1] is 1.1 µM; at Insulin receptor, 9 µM.
In the case of `COc1ncc(-c2ccc3c(c2)OCO3)cc1C(=O)Nc1ccc(CN2CCN(C)CC2)cc1`, the IC50 is 20.3 µM in experiment [1] and above 40 µM against Insulin receptor.
Take `CN1CCN(c2ccc(NC(=O)c3cc(-c4ccc5c(c4)OCO5)c[nH]c3=O)cc2)CC1`: the IC50 was 5 µM in [2], above 20 µM in experiment [3], 3.8 µM on Bcr/Abl fusion protein and above 20 µM in experiment [4].

Source of the values: ChEMBL document CHEMBL1149386, “Design and synthesis of 5-aryl-pyridone-carboxamides as inhibitors of anaplastic lymphoma kinase” (J Med Chem, 2006).
